Like-named read-outs stand apart in the source and are kept apart here.
Assays:
[1] = format: physicochemical; conditions: for Concentration measured by HPLC after treatment: pH 7 buffer, test temperature e.g. 20° C.
Description: A stock pH 7 buffer solution was prepared by adding aqueous sodium hydroxide solution (0.1 M, 145 mL) to aqueous potassium dihydrogen phosphate solution (0.1 M, 250 mL), and then adding sufficient distilled water to adjust the final volume to 500 mL. At least 1 time and up to about 5 times the amount of metsulfuron-methyl needed for saturation was added to a mixing vessel containing stock buffer solution at the test temperature (e.g., 20° C.). The mixture was magnetically stirred in the dark while being maintained at the test temperature. Samples were periodically removed for analysis. The samples were centrifuged using a high speed, temperature-controlled centrifuge at the test temperature for about 20 minutes at >12000 G to remove suspended particles. An aliquot of each supernatant was taken for analysis. The concentration of metsulfuron-methyl in the supernatant was determined by a high pressure liquid chromatography (HPLC) with a reversed phase chromatography column and UV detection. The method should include development of best-fit calibration curves based on at least three standards using linear regression analysis Samples were successively withdrawn from the mixing vessel and analyzed until three successive samples show little or no variation in concentration. The test is preferably replicated to ensure accuracy.

[2] = Cleanout test (residue in polyethylene bottles extracted with acetonitrile); format: physicochemical; conditions: dispersed in tap water, stood overnight, lower = more effective cleanout
Description: The test was conducted by dispersing in water a sample to produce a concentration that is normally used when applying the herbicide: 25% metsulfuron-methyl. The sample was added to tap water (300 mL) in a 400 mL beaker and magnetically stirred for 2 minutes. The mixture was then stirred for 2 minutes, whereupon the resulting dispersion was dispensed in three 100 mL aliquots to 4-oz (118 mL) polyethylene bottles. The bottles were capped, inverted twice and allowed to stand overnight.
After standing overnight, each individual bottle was inverted twice and the liquid contents were then poured out. Tap water (10 mL) was added and the bottle was inverted until all sediment was re-suspended, whereupon the contents were poured out. Tap water (100 mL) was added and the bottle was inverted twice and then allowed to stand undisturbed for 10 minutes. The bottle was inverted twice more and the contents were poured out. Acetonitrile (10 mL) was added to the bottle to extract any remaining material. The acetonitrile solution was analyzed by reversed-phase liquid chromatography with UV detection. The cleanout rating (the concentration of metsulfuron-methyl herbicide in the acetonitrile solution) is reported in % in Table 6 below.

Viscosity when dissolved = format: physicochemical
weeds = experiment: Activity in controlling weeds; conditions: in vivo
[3] = OD formulation, original concentration 40%
[4] = SG formulation, original concentration 25%
[5] = WG formulation, original concentration 25%

| SMILES | Concentration measured by HPLC after treatment [1, 3] [%] | Concentration measured by HPLC after treatment [1, 4] [%] | Concentration measured by HPLC after treatment [1, 5] [%] | Cleanout rating (concentration of metsulfuron-methyl in the acetonitrile solution) ([2]; OD formulation) [%] | Cleanout rating (concentration of metsulfuron-methyl in the acetonitrile solution) ([2]; SG formulation) [%] | Cleanout rating (concentration of metsulfuron-methyl in the acetonitrile solution) ([2]; WG formulation) [%] | Viscosity (in words) (Viscosity when dissolved; listed as metsulfuron-methyl in amorphous state) | Solubility (in words) [1] | Viscosity (in words) (Viscosity when dissolved; listed as crystalline modification I of metsulfuron-methyl) | Activity in controlling weeds (weeds) |
| --- | --- | --- | --- | --- | --- | --- | --- | --- | --- | --- |
| COC(=O)c1ccccc1S(=O)(=O)NC(=O)Nc1nc(C)nc(OC)n1 [Amorphous metsulfuron-methyl, methyl 2-[[[[(4-methoxy-6-methyl-1,3,5-triazin-2-yl)amino]carbonyl]amino]sulfonyl]benzoate, reference compound] | 14 | 15 | 12 | 26 | 10 | 13 | highly viscous |  |  |  |
| COC(=O)c1ccccc1S(=O)(=O)NC(=O)Nc1nc(C)nc(OC)n1 [Metsulfuron-methyl, crystalline modification I] [methyl 2-(4-methoxy-6-methyl-1,3,5-triazin-2-ylcarbamoylsulfamoyl)benzoate] | 35 | 24.9 | 23 | 5 | 0.1 | 2 |  | significant increase | significant decrease | active in controlling weeds |

From patent US20170121293A1, “PROCESS FOR PREPARING A NOVEL CRYSTALLINE FORM OF METSULFURON-METHYL AND USE OF THE SAME” (ROTAM AGROCHEM INTERNATIONAL COMPANY LIMITED, priority 2015, published 2017)
